Measured values published in the supplement of paper PMC10307832.

Columns and labels:
Experiment in all cases: relative viability (nuclei count vs DMSO), 5 days (fraction); higher = more cells survive
PC-14 = test system: PC-14
Procedure, shortened: (§1)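 Relative viability equals treated-well nuclei counts divided by vehicle-well nuclei counts. Counts came from 4× images of lung cancer cell lines grown in 1536-well plates for 5 days after pin-tool dosing on the day after seeding. Dosing used one drug alone or a fixed anchor-drug dose plus five library-drug doses (not always all listed) in √10 steps, and values are medians of duplicate plates.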

NCI-H2342 = test system: NCI-H2342
Procedure, shortened: as §1

NCI-H1395 = test system: NCI-H1395
Procedure, shortened: as §1

HCC-15 = test system: HCC-15
Procedure, shortened: as §1

NCI-H2170 = test system: NCI-H2170
Procedure, shortened: as §1

NCI-H1355 = test system: NCI-H1355
Procedure, shortened: as §1

NCI-H1734 = test system: NCI-H1734
Procedure, shortened: as §1

NCI-H2228 = test system: NCI-H2228
Procedure, shortened: as §1

HOP-62 = test system: HOP-62
Procedure, shortened: as §1

UMC-11 = test system: UMC-11
Procedure, shortened: as §1

COR-L 105 = test system: COR-L 105
Procedure, shortened: as §1

NCI-H1793 = test system: NCI-H1793
Procedure, shortened: as §1

SK-MES-1 = test system: SK-MES-1
Procedure, shortened: as §1

NCI-H1993 = test system: NCI-H1993
Procedure, shortened: as §1

NCI-H1755 = test system: NCI-H1755
Procedure, shortened: as §1

COR-L23 = test system: COR-L23
Procedure, shortened: as §1

NCI-H2347 = test system: NCI-H2347
Procedure, shortened: as §1

NCI-H358 = test system: NCI-H358
Procedure, shortened: as §1

HARA = test system: HARA
Procedure, shortened: as §1

NCI-H2009 = test system: NCI-H2009
Procedure, shortened: as §1

NCI-H647 = test system: NCI-H647
Procedure, shortened: as §1

NCI-H838 = test system: NCI-H838
Procedure, shortened: as §1

EKVX = test system: EKVX
Procedure, shortened: as §1

Compound `CC1(C)CCC(c2ccc(Cl)cc2)=C(CN2CCN(c3ccc(C(=O)NS(=O)(=O)c4ccc(N[C@H](CCN5CCOCC5)CSc5ccccc5)c(S(=O)(=O)C(F)(F)F)c4)cc3)CC2)C1` [Navitoclax] + CCNC(=O)c1noc(-c2cc(C(C)C)c(O)cc2O)c1-c1ccc(CN2CCOCC2)cc1 [Luminespib] (partner 0.01 µM) has a relative viability (PC-14; first compound 0.005 µM) of 0.223, a relative viability (PC-14; first compound 0.01581 µM) of 0.154 and a relative viability (PC-14; first compound 0.05 µM) of 0.23. The relative viability (PC-14; first compound 0.1581 µM) was 0.313, the relative viability (PC-14; first compound 0.5 µM) was 0.146 and the relative viability (NCI-H2342; first compound 0.005 µM) was 0.683. For the same compound, the relative viability (NCI-H2342; first compound 0.01581 µM) was 0.747, the relative viability (NCI-H2342; first compound 0.05 µM) was 0.476 and the relative viability (NCI-H2342; first compound 0.1581 µM) was 0.723. The relative viability (NCI-H2342; first compound 0.5 µM) was 0.683, the relative viability (NCI-H1395; first compound 0.005 µM) was 0.741 and the relative viability (NCI-H1395; first compound 0.01581 µM) was 0.836. For the same compound, the relative viability (NCI-H1395; first compound 0.05 µM) was 0.714, the relative viability (NCI-H1395; first compound 0.1581 µM) was 0.577 and the relative viability (NCI-H1395; first compound 0.5 µM) was 0.793. For the same compound, the relative viability (HCC-15; first compound 0.005 µM) was 0.299, the relative viability (HCC-15; first compound 0.01581 µM) was 0.284 and the relative viability (HCC-15; first compound 0.05 µM) was 0.546. For the same compound, the relative viability (HCC-15; first compound 0.1581 µM) was 0.352, the relative viability (HCC-15; first compound 0.5 µM) was 0.256 and the relative viability (NCI-H2170; first compound 0.005 µM) was 0.519. For the same compound, the relative viability (NCI-H2170; first compound 0.01581 µM) was 0.806, the relative viability (NCI-H2170; first compound 0.05 µM) was 0.552 and the relative viability (NCI-H2170; first compound 0.1581 µM) was 0.67. For the same compound, the relative viability (NCI-H2170; first compound 0.5 µM) was 0.538, the relative viability (NCI-H1355; first compound 0.005 µM) was 0.725 and the relative viability (NCI-H1355; first compound 0.01581 µM) was 0.845. It also gave a relative viability (NCI-H1355; first compound 0.05 µM) of 0.674, a relative viability (NCI-H1355; first compound 0.1581 µM) of 0.668 and a relative viability (NCI-H1355; first compound 0.5 µM) of 0.742. It also gave a relative viability (NCI-H1734; first compound 0.005 µM) of 0.174, a relative viability (NCI-H1734; first compound 0.01581 µM) of 0.191 and a relative viability (NCI-H1734; first compound 0.1581 µM) of 0.182. It also gave a relative viability (NCI-H1734; first compound 0.5 µM) of 0.16, a relative viability (NCI-H2228; first compound 0.005 µM) of 0.148 and a relative viability (NCI-H2228; first compound 0.01581 µM) of 0.148. For the same compound, the relative viability (NCI-H2228; first compound 0.1581 µM) was 0.146, the relative viability (NCI-H2228; first compound 0.5 µM) was 0.142 and the relative viability (HOP-62; first compound 0.005 µM) was 0.913. For the same compound, the relative viability (HOP-62; first compound 0.01581 µM) was 0.937, the relative viability (HOP-62; first compound 0.05 µM) was 0.895 and the relative viability (HOP-62; first compound 0.1581 µM) was 0.894. For the same compound, the relative viability (HOP-62; first compound 0.5 µM) was 0.993, the relative viability (UMC-11; first compound 0.005 µM) was 0.986 and the relative viability (UMC-11; first compound 0.01581 µM) was 1.07. For the same compound, the relative viability (UMC-11; first compound 0.05 µM) was 1.13, the relative viability (UMC-11; first compound 0.1581 µM) was 1.05 and the relative viability (UMC-11; first compound 0.5 µM) was 0.829. The relative viability (COR-L 105; first compound 0.005 µM) was 0.801, the relative viability (COR-L 105; first compound 0.01581 µM) was 1.2 and the relative viability (COR-L 105; first compound 0.05 µM) was 0.974. For the same compound, the relative viability (COR-L 105; first compound 0.1581 µM) was 0.701, the relative viability (COR-L 105; first compound 0.5 µM) was 0.544 and the relative viability (NCI-H1793; first compound 0.005 µM) was 0.262. The relative viability (NCI-H1793; first compound 0.01581 µM) was 0.177, the relative viability (NCI-H1793; first compound 0.1581 µM) was 0.216 and the relative viability (NCI-H1793; first compound 0.5 µM) was 0.17. The relative viability (SK-MES-1; first compound 0.005 µM) was 0.665, the relative viability (SK-MES-1; first compound 0.01581 µM) was 0.985 and the relative viability (SK-MES-1; first compound 0.05 µM) was 0.959. The relative viability (SK-MES-1; first compound 0.1581 µM) was 0.743, the relative viability (SK-MES-1; first compound 0.5 µM) was 0.856 and the relative viability (NCI-H1993; first compound 0.005 µM) was 0.813. For the same compound, the relative viability (NCI-H1993; first compound 0.01581 µM) was 0.891, the relative viability (NCI-H1993; first compound 0.05 µM) was 0.824 and the relative viability (NCI-H1993; first compound 0.1581 µM) was 0.913. For the same compound, the relative viability (NCI-H1993; first compound 0.5 µM) was 0.803, the relative viability (NCI-H1755; first compound 0.005 µM) was 0.381 and the relative viability (NCI-H1755; first compound 0.01581 µM) was 0.393. The relative viability (NCI-H1755; first compound 0.05 µM) was 0.332, the relative viability (NCI-H1755; first compound 0.1581 µM) was 0.173 and the relative viability (NCI-H1755; first compound 0.5 µM) was 0.426. It also gave a relative viability (COR-L23; first compound 0.005 µM) of 0.605, a relative viability (COR-L23; first compound 0.01581 µM) of 0.606 and a relative viability (COR-L23; first compound 0.05 µM) of 0.738. It also gave a relative viability (COR-L23; first compound 0.1581 µM) of 0.595, a relative viability (COR-L23; first compound 0.5 µM) of 0.666 and a relative viability (NCI-H2347; first compound 0.005 µM) of 0.467. For the same compound, the relative viability (NCI-H2347; first compound 0.01581 µM) was 0.62, the relative viability (NCI-H2347; first compound 0.1581 µM) was 0.372 and the relative viability (NCI-H2347; first compound 0.5 µM) was 0.312. The relative viability (NCI-H358; first compound 0.005 µM) was 0.418, the relative viability (NCI-H358; first compound 0.01581 µM) was 0.325 and the relative viability (NCI-H358; first compound 0.05 µM) was 0.264. The relative viability (NCI-H358; first compound 0.1581 µM) was 0.388, the relative viability (NCI-H358; first compound 0.5 µM) was 0.242 and the relative viability (HARA; first compound 0.005 µM) was 0.941. It also gave a relative viability (HARA; first compound 0.01581 µM) of 0.678, a relative viability (HARA; first compound 0.1581 µM) of 0.562 and a relative viability (HARA; first compound 0.5 µM) of 0.682. It also gave a relative viability (NCI-H2009; first compound 0.005 µM) of 1.04, a relative viability (NCI-H2009; first compound 0.01581 µM) of 1.1 and a relative viability (NCI-H2009; first compound 0.05 µM) of 1.02. The relative viability (NCI-H2009; first compound 0.1581 µM) was 1.07, the relative viability (NCI-H2009; first compound 0.5 µM) was 1.04 and the relative viability (NCI-H647; first compound 0.005 µM) was 0.271. It also gave a relative viability (NCI-H647; first compound 0.01581 µM) of 0.215, a relative viability (NCI-H647; first compound 0.05 µM) of 0.17 and a relative viability (NCI-H647; first compound 0.1581 µM) of 0.206. The relative viability (NCI-H647; first compound 0.5 µM) was 0.133, the relative viability (NCI-H838; first compound 0.005 µM) was 0.344 and the relative viability (NCI-H838; first compound 0.01581 µM) was 0.438. It also gave a relative viability (NCI-H838; first compound 0.05 µM) of 0.37, a relative viability (NCI-H838; first compound 0.1581 µM) of 0.17 and a relative viability (NCI-H838; first compound 0.5 µM) of 0.239. The relative viability (EKVX; first compound 0.005 µM) was 0.94, the relative viability (EKVX; first compound 0.01581 µM) was 1.01 and the relative viability (EKVX; first compound 0.05 µM) was 0.663. It also gave a relative viability (EKVX; first compound 0.1581 µM) of 0.784 and a relative viability (EKVX; first compound 0.5 µM) of 0.785.
